According to patent US20230406885A1, “CYCLIC PEPTIDES FOR TRAPPING INTERLEUKIN-1 BETA” (MERCK SHARP & DOHME LLC, priority 2022, published 2023):
*1 amine or outer side, *2 acyl side, *3 side chain or, on linkers, in order; H or OH if unused. Where a SMILES comes first, the peptide text is derived from it. [ ]: non-standard residue; d: D form. Ala(piperidin-4-yl) = O=C([C@H](CC1CCN([*:3])CC1)N[*:1])[*:2]; Trp(βS-Me,4-F) = C[C@@H](c1c[nH]c2cccc(F)c12)[C@H](N)C(=O)O; Bip(4'-COOH) = N[C@@H](Cc1ccc(-c2ccc(C(=O)O)cc2)cc1)C(=O)O; Phe(4-COOH) = N[C@@H](Cc1ccc(C(=O)O)cc1)C(=O)O; h3Pal(5-CN) = N#Cc1cncc(CC[C@H](N)C(=O)O)c1; Pro(4R-NH2) = N[C@H]1CN[C@H](C(=O)O)C1; X7 = O=C([C@H](CCN1CCOCC1)N[*:1])[*:2]; 1Nal = N[C@@H](Cc1cccc2ccccc12)C(=O)O; AEF = NCCOc1ccc(C[C@H](N)C(=O)O)cc1; hTyr = N[C@@H](CCc1ccc(O)cc1)C(=O)O; hPhe = N[C@@H](CCc1ccccc1)C(=O)O; 4Pal = N[C@@H](Cc1ccncc1)C(=O)O; dDab = NCC[C@@H](N)C(=O)O; dNMeA = CN[C@H](C)C(=O)O; Dab = NCC[C@H](N)C(=O)O; Nva = CCC[C@H](N)C(=O)O

Molecular target: T1, Recombinant human IL-1β (Homo sapiens, UniProt P01584)
T1 construct: purchased BioLegend 579404
Test: IL-6 assay in MRC5 cells: inhibition of IL-1β induced IL-6 secretion (AlphaLISA)
Type: cell-based
Settings: not given
Summary of the method: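 IL-1β at 2×EC80 in seeding medium (EMEM, 0.025% BSA) preincubated 1 h at ambient temperature with compound, then 3000 MRC5 cells/well added and incubated overnight at 37 °C, 5% CO2. IL-6 in conditioned medium quantified by AlphaLISA; IC50 from 4-parameter logistic fit.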

T1 sequence (P01584 117-269): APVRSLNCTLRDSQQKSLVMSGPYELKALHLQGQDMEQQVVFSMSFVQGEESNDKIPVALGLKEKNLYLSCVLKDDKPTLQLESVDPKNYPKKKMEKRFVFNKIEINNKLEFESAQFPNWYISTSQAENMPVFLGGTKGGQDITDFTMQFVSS

SMILES | IC50 [nM]
CC(=O)NCCOc1ccc(C[C@@H]2NC(=O)[C@H](Cc3ccc(OCCN)cc3)NC(=O)[C@@H](C)NC(=O)[C@H](CC(C)C)NC(=O)[C@H](Cc3c[nH]c4ccccc34)NC(=O)[C@H](Cc3ccc(-c4ccc(C(=O)O)cc4)cc3)NC(=O)CNC(=O)[C@@H](C)N(C)C(=O)[C@H](CC(=O)O)NC(=O)[C@H]([C@@H](C)c3c[nH]c4cccc(F)c34)NC(=O)[C@@H]3C[C@@H](N)CN3C(=O)CNC(=O)[C@H](Cc3ccc(C(=O)O)cc3)NC(=O)[C@H](Cc3c[nH]c4ccccc34)NC2=O)cc1 [Example 164] (cyclo([AEF][AEF](Ac)W[Phe(4-COOH)]G[Pro(4R-NH2)][Trp(βS-Me,4-F)]D[dNMeA]G[Bip(4'-COOH)]WL[dA])) | 0.459

Same assay, conditions: inhibition of IL-1β induced IL-6 secretion in MRC5 cells; read-out: MRC5 IC50

IC50 [nM] | SMILES
0.22 | CC(=O)NCCOc1ccc(C[C@@H]2NC(=O)[C@H](CCc3ccc(O)cc3)NC(=O)[C@@H](C)NC(=O)[C@H](CO)NC(=O)[C@H](Cc3cccc4ccccc34)NC(=O)[C@H](Cc3ccc(-c4ccc(C(=O)O)cc4)cc3)NC(=O)CNC(=O)[C@@H](C)N(C)C(=O)[C@H](CC(=O)O)NC(=O)[C@H]([C@@H](C)c3c[nH]c4cccc(F)c34)NC(=O)[C@@H]3C[C@@H](N)CN3C(=O)CNC(=O)[C@H](Cc3ccc(C(=O)O)cc3)NC(=O)[C@H](Cc3c[nH]c4ccccc34)NC2=O)cc1 [Example 155] (cyclo([AEF](Ac)W[Phe(4-COOH)]G[Pro(4R-NH2)][Trp(βS-Me,4-F)]D[dNMeA]G[Bip(4'-COOH)][1Nal]S[dA][hTyr]))
0.948 | CC(=O)NCCOc1ccc(C[C@@H]2NC(=O)[C@H](CCc3ccc(O)cc3)NC(=O)[C@@H](C)NC(=O)[C@H](CC(C)C)NC(=O)[C@H](Cc3ccncc3)NC(=O)[C@H](Cc3ccc(-c4ccc(C(=O)O)cc4)cc3)NC(=O)CNC(=O)[C@@H](C)N(C)C(=O)[C@H](CC(=O)O)NC(=O)[C@H]([C@@H](C)c3c[nH]c4cccc(F)c34)NC(=O)[C@@H]3C[C@@H](N)CN3C(=O)CNC(=O)[C@H](Cc3ccc(C(=O)O)cc3)NC(=O)[C@H](Cc3c[nH]c4ccccc34)NC2=O)cc1 [Example 156] (cyclo([AEF](Ac)W[Phe(4-COOH)]G[Pro(4R-NH2)][Trp(βS-Me,4-F)]D[dNMeA]G[Bip(4'-COOH)][4Pal]L[dA][hTyr]))
0.403 | CCC[C@@H]1NC(=O)[C@H](Cc2ccncc2)NC(=O)[C@H](Cc2ccc(-c3ccc(C(=O)O)cc3)cc2)NC(=O)CNC(=O)[C@@H](C)N(C)C(=O)[C@H](CC(=O)O)NC(=O)[C@H]([C@@H](C)c2c[nH]c3cccc(F)c23)NC(=O)[C@@H]2C[C@@H](N)CN2C(=O)CNC(=O)[C@H](Cc2ccc(C(=O)O)cc2)NC(=O)[C@H](Cc2c[nH]c3ccccc23)NC(=O)[C@H](Cc2ccc(OCCNC(C)=O)cc2)NC(=O)[C@H](CCc2ccc(O)cc2)NC(=O)[C@@H](C)NC1=O [Example 157] (cyclo([AEF](Ac)W[Phe(4-COOH)]G[Pro(4R-NH2)][Trp(βS-Me,4-F)]D[dNMeA]G[Bip(4'-COOH)][4Pal][Nva][dA][hTyr]))
0.0257 | CC(=O)NCCOc1ccc(C[C@@H]2NC(=O)[C@H](CCc3cncc(C#N)c3)NC(=O)[C@@H](C)NC(=O)[C@H](CC(C)C)NC(=O)[C@H](CCCCN)NC(=O)[C@H](Cc3ccc(-c4ccc(C(=O)O)cc4)cc3)NC(=O)CNC(=O)[C@@H](C)N(C)C(=O)[C@H](CC(=O)O)NC(=O)[C@H]([C@@H](C)c3c[nH]c4cccc(F)c34)NC(=O)[C@@H]3C[C@@H](N)CN3C(=O)CNC(=O)[C@H](Cc3ccc(C(=O)O)cc3)NC(=O)[C@H](Cc3c[nH]c4ccccc34)NC2=O)cc1 [Example 158] (cyclo([AEF](Ac)W[Phe(4-COOH)]G[Pro(4R-NH2)][Trp(βS-Me,4-F)]D[dNMeA]G[Bip(4'-COOH)]KL[dA][h3Pal(5-CN)]))
0.118 | CC(=O)NCCOc1ccc(C[C@@H]2NC(=O)[C@H](CCc3ccc(O)cc3)NC(=O)[C@@H](C)NC(=O)[C@H](CC(C)C)NC(=O)[C@H](CCCCN)NC(=O)[C@H](Cc3ccc(-c4ccc(C(=O)O)cc4)cc3)NC(=O)CNC(=O)[C@@H](C)N(C)C(=O)[C@H](CC(=O)O)NC(=O)[C@H]([C@@H](C)c3c[nH]c4cccc(F)c34)NC(=O)[C@@H]3C[C@@H](N)CN3C(=O)CNC(=O)[C@H](Cc3ccc(C(=O)O)cc3)NC(=O)[C@H](Cc3c[nH]c4ccccc34)NC2=O)cc1 [Example 159] (cyclo([AEF](Ac)W[Phe(4-COOH)]G[Pro(4R-NH2)][Trp(βS-Me,4-F)]D[dNMeA]G[Bip(4'-COOH)]KL[dA][hTyr]))
0.522 | CC(=O)NCCOc1ccc(C[C@@H]2NC(=O)[C@H](CCc3ccc(O)cc3)NC(=O)[C@@H](CCN)NC(=O)[C@H](CC(C)C)NC(=O)[C@H](CCCCN)NC(=O)[C@H](Cc3ccc(-c4ccc(C(=O)O)cc4)cc3)NC(=O)CNC(=O)[C@@H](C)N(C)C(=O)[C@H](CC(=O)O)NC(=O)[C@H]([C@@H](C)c3c[nH]c4cccc(F)c34)NC(=O)[C@@H]3C[C@@H](N)CN3C(=O)CNC(=O)[C@H](Cc3ccc(C(=O)O)cc3)NC(=O)[C@H](Cc3c[nH]c4ccccc34)NC2=O)cc1 [Example 160] (cyclo([AEF](Ac)W[Phe(4-COOH)]G[Pro(4R-NH2)][Trp(βS-Me,4-F)]D[dNMeA]G[Bip(4'-COOH)]KL[dDab][hTyr]))
0.483 | CC(=O)NCCOc1ccc(C[C@@H]2NC(=O)[C@H](CCc3ccc(O)cc3)NC(=O)[C@@H](CO)NC(=O)[C@H](CC(C)C)NC(=O)[C@H](CCCCN)NC(=O)[C@H](Cc3ccc(-c4ccc(C(=O)O)cc4)cc3)NC(=O)CNC(=O)[C@@H](C)N(C)C(=O)[C@H](CC(=O)O)NC(=O)[C@H]([C@@H](C)c3c[nH]c4cccc(F)c34)NC(=O)[C@@H]3C[C@@H](N)CN3C(=O)CNC(=O)[C@H](Cc3ccc(C(=O)O)cc3)NC(=O)[C@H](Cc3c[nH]c4ccccc34)NC2=O)cc1 [Example 161] (cyclo([AEF](Ac)W[Phe(4-COOH)]G[Pro(4R-NH2)][Trp(βS-Me,4-F)]D[dNMeA]G[Bip(4'-COOH)]KL[dS][hTyr]))
0.749 | CC(=O)NCCOc1ccc(C[C@@H]2NC(=O)CNC(=O)[C@@H](C)NC(=O)[C@H](CCN3CCOCC3)NC(=O)[C@H](Cc3c[nH]c4ccccc34)NC(=O)[C@H](Cc3ccc(-c4ccc(C(=O)O)cc4)cc3)NC(=O)CNC(=O)[C@@H](C)N(C)C(=O)[C@H](CC(=O)O)NC(=O)[C@H]([C@@H](C)c3c[nH]c4cccc(F)c34)NC(=O)[C@@H]3C[C@@H](N)CN3C(=O)CNC(=O)[C@H](Cc3ccc(C(=O)O)cc3)NC(=O)[C@H](Cc3c[nH]c4ccccc34)NC2=O)cc1 [Example 162] (cyclo([AEF](Ac)W[Phe(4-COOH)]G[Pro(4R-NH2)][Trp(βS-Me,4-F)]D[dNMeA]G[Bip(4'-COOH)]W[X7][dA]G))
0.156 | CC(=O)NCCOc1ccc(C[C@@H]2NC(=O)[C@H](CCc3ccccc3)NC(=O)[C@@H](C)NC(=O)[C@H](CCN)NC(=O)[C@H](Cc3c[nH]c4ccccc34)NC(=O)[C@H](Cc3ccc(-c4ccc(C(=O)O)cc4)cc3)NC(=O)CNC(=O)[C@@H](C)N(C)C(=O)[C@H](CC(=O)O)NC(=O)[C@H]([C@@H](C)c3c[nH]c4cccc(F)c34)NC(=O)[C@@H]3C[C@@H](N)CN3C(=O)CNC(=O)[C@H](Cc3ccc(C(=O)O)cc3)NC(=O)[C@H](Cc3c[nH]c4ccccc34)NC2=O)cc1 [Example 163] (cyclo([AEF](Ac)W[Phe(4-COOH)]G[Pro(4R-NH2)][Trp(βS-Me,4-F)]D[dNMeA]G[Bip(4'-COOH)]W[Dab][dA][hPhe]))
0.781 | CC(=O)NCCOc1ccc(C[C@@H]2NC(=O)[C@H](CC3CCNCC3)NC(=O)[C@@H](C)NC(=O)[C@H](CC(C)C)NC(=O)[C@H](Cc3c[nH]c4ccccc34)NC(=O)[C@H](Cc3ccc(-c4ccc(C(=O)O)cc4)cc3)NC(=O)CNC(=O)[C@@H](C)N(C)C(=O)[C@H](CC(=O)O)NC(=O)[C@H]([C@@H](C)c3c[nH]c4cccc(F)c34)NC(=O)[C@@H]3C[C@@H](N)CN3C(=O)CNC(=O)[C@H](Cc3ccc(C(=O)O)cc3)NC(=O)[C@H](Cc3c[nH]c4ccccc34)NC2=O)cc1 [Example 165] (cyclo([AEF](Ac)W[Phe(4-COOH)]G[Pro(4R-NH2)][Trp(βS-Me,4-F)]D[dNMeA]G[Bip(4'-COOH)]WL[dA][Ala(piperidin-4-yl)]))
0.149 | CC(=O)NCCOc1ccc(C[C@@H]2NC(=O)[C@H](CCc3ccccc3)NC(=O)[C@@H](C)NC(=O)[C@H](CC(C)C)NC(=O)[C@H](Cc3c[nH]c4ccccc34)NC(=O)[C@H](Cc3ccc(-c4ccc(C(=O)O)cc4)cc3)NC(=O)CNC(=O)[C@@H](C)N(C)C(=O)[C@H](CC(=O)O)NC(=O)[C@H]([C@@H](C)c3c[nH]c4cccc(F)c34)NC(=O)[C@@H]3C[C@@H](N)CN3C(=O)CNC(=O)[C@H](Cc3ccc(C(=O)O)cc3)NC(=O)[C@H](Cc3c[nH]c4ccccc34)NC2=O)cc1 [Example 166] (cyclo([AEF](Ac)W[Phe(4-COOH)]G[Pro(4R-NH2)][Trp(βS-Me,4-F)]D[dNMeA]G[Bip(4'-COOH)]WL[dA][hPhe]))
0.136 | CC(=O)NCCOc1ccc(C[C@@H]2NC(=O)[C@H](CCc3ccc(O)cc3)NC(=O)[C@@H](C)NC(=O)[C@H](CC(C)C)NC(=O)[C@H](Cc3c[nH]c4ccccc34)NC(=O)[C@H](Cc3ccc(-c4ccc(C(=O)O)cc4)cc3)NC(=O)CNC(=O)[C@@H](C)N(C)C(=O)[C@H](CC(=O)O)NC(=O)[C@H]([C@@H](C)c3c[nH]c4cccc(F)c34)NC(=O)[C@@H]3C[C@@H](N)CN3C(=O)CNC(=O)[C@H](Cc3ccc(C(=O)O)cc3)NC(=O)[C@H](Cc3c[nH]c4ccccc34)NC2=O)cc1 [Example 167] (cyclo([AEF](Ac)W[Phe(4-COOH)]G[Pro(4R-NH2)][Trp(βS-Me,4-F)]D[dNMeA]G[Bip(4'-COOH)]WL[dA][hTyr]))
0.0847 | CC(=O)NCCOc1ccc(C[C@@H]2NC(=O)[C@H](CCc3ccc(O)cc3)NC(=O)[C@@H](CCN)NC(=O)[C@H](CC(C)C)NC(=O)[C@H](Cc3c[nH]c4ccccc34)NC(=O)[C@H](Cc3ccc(-c4ccc(C(=O)O)cc4)cc3)NC(=O)CNC(=O)[C@@H](C)N(C)C(=O)[C@H](CC(=O)O)NC(=O)[C@H]([C@@H](C)c3c[nH]c4cccc(F)c34)NC(=O)[C@@H]3C[C@@H](N)CN3C(=O)CNC(=O)[C@H](Cc3ccc(C(=O)O)cc3)NC(=O)[C@H](Cc3c[nH]c4ccccc34)NC2=O)cc1 [Example 168] (cyclo([AEF](Ac)W[Phe(4-COOH)]G[Pro(4R-NH2)][Trp(βS-Me,4-F)]D[dNMeA]G[Bip(4'-COOH)]WL[dDab][hTyr]))
